Test results: PubChem BioAssay AID449764 (Southern Research Specialized Biocontainment Screening …, 2010)

Tested on: Mycobacterium tuberculosis H37Rv growth inhibition, no glycerol
Experiment: Confirmatory growth inhibition assay, Mycobacterium tuberculosis H37Rv, absence of glycerol (AID 449764);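 note: growth read after 7 days of incubation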
Details: for IC90: measured here: IC90 growth inhibition

Row | Structure (SMILES) | IC50 | IC90
1 | Cc1ccc(OCCCCNC2CCCC(C)C2C)c(C)c1 (stereo unspecified) | 23.1 µM | 25.4 µM
2 | CN1CCN(C(=O)/C=C/c2cn(-c3ccccc3)nc2-c2ccc3c(c2)OCCO3)CC1 | – | > 100 µM
3 | Cc1cccc(NC(=O)c2nc[nH]c2C(=O)N[C@H](C)c2ccccc2)c1 | 10.2 µM | > 100 µM
4 | Cc1cccc(-c2oc3ccc(-c4ccc5c(c4)OCO5)cc3c2C#Cc2cncn2C)c1 | 2.86 µM | 3.23 µM
5 | O=C1NCC(c2ccccc2)C1C(=O)N/N=C\c1ccc(-c2ccc(Cl)c(Cl)c2)o1 (stereo unspecified) | – | > 100 µM
6 | O=C(Nc1ncc(Cc2ccccc2Cl)s1)C1=NCCN1 | 23.7 µM | > 100 µM
7 | CCCc1cc(NC(=O)CCl)n(-c2ccccc2)n1 | 2.93 µM | 3.32 µM
8 | O=C(NC1CCCCC1)C(c1cccs1)N(CCCN1CCOCC1)C(=O)c1ccc(-c2ccccc2)[nH]1 (stereo unspecified) | 51.3 µM | 86.4 µM
9 | COc1ccc(-c2c[n+]3c4n2CCCCC4=C(c2ccccc2)C3)cc1 | 63.1 µM | 78.7 µM
10 | NNc1nc2ccc(Cl)cc2s1 | 62.4 µM | 70.6 µM
11 | CCOC(=O)CSc1ccc(C(=O)Nc2ccc(OC)cc2)cn1 | 0.46 µM | > 100 µM
12 | Cc1ccc2nc(N/N=C/c3ccccc3C#N)nc(-c3ccccc3)c2c1 | 91.1 µM | > 100 µM
13 | COc1cc(/C=C/c2cc[n+](C)cc2)ccc1OCC(=O)Nc1ccc(Cl)c(Cl)c1 | 25 µM | 28 µM
14 | CCc1ccc(C2=NN(c3ccc(S(N)(=O)=O)cc3)C(c3ccc(F)cc3)C2)cc1 (stereo unspecified) | 40.5 µM | 53.3 µM
15 | c1cc2c3c(cccc3c1)NC1(CCC3(CC1)Nc1cccc4cccc(c14)N3)N2 | 78.1 µM | > 100 µM
16 | Cc1c(Cl)cccc1NC(=O)CN1CCC(C(O)(c2ccccc2)c2ccccc2)CC1 | 45.1 µM | > 100 µM
17 | COc1ccc(C2(c3ccc(OC)cc3)NC(=O)N(CC(=O)Nc3ccc(OC(F)F)cc3)C2=O)cc1 | 25 µM | 53.9 µM
18 | CCCn1c(N2CCN(Cc3ccc(Cl)cc3)CC2)nc2ccccc21 | 25.2 µM | 38 µM
19 | CC(C)C(=O)N1CCC2(CC1)Oc1ccc(Cl)cc1C(=O)C21CC(c2ccccc2)=NO1 (stereo unspecified) | 59.4 µM | > 100 µM
20 | Cc1nn(-c2ccccc2)c(Cl)c1C(=O)Nc1nnc(C2CCCCC2)s1 | – | > 50 µM
21 | O=C(CCC(=O)NC1CCCCCCC1)Nc1nnc(C(F)(F)F)s1 | 12.1 µM | 13.8 µM

Row | Structure (SMILES) | IC50 | IC90
22 | O=C(O)c1[nH]c(=O)[nH]c(=O)c1F | 5.47 µM | 14.1 µM
23 | O=C(Nc1cc(N2CCOCC2)ncn1)NC1(C(F)(F)F)Oc2ccc(Cl)cc2O1 (stereo unspecified) | 23.6 µM | 26.9 µM
24 | O=[N+]([O-])c1cc([N+](=O)[O-])c2cc3ccccc3nc2c1 | < 0.2 µM | 0.64 µM
25 | COCc1cc(=O)[nH]c(Nc2nc3ccccc3o2)n1 | 26.4 µM | 48 µM
26 | CCCCCCC#Cc1ccc2c(c1)COc1c3ccccc3nn1-2 | 75.5 µM | > 100 µM
27 | O=C(/C=C/Sc1ncn[nH]1)c1ccc(Cl)cc1 | 34.7 µM | 55.1 µM
28 | O=C(Nc1cccc(Cl)c1)N1CCN(C/C=C/c2ccccc2)CC1 | 35 µM | 51.3 µM
29 | O[C@@H](c1cc(C(F)(F)F)nc2c(C(F)(F)F)cccc12)[C@H]1CCCCN1 | 22.7 µM | 25.5 µM
30 | CCOC(=O)C1=C(C)NC(SCC(=O)Nc2nc(C)cs2)=C(C#N)C1c1cccs1 (stereo unspecified) | 31.3 µM | 49.8 µM
31 | CCCCSCCCNC(=O)c1cn(CC)c2ccc(S(=O)(=O)N3CCOCC3)cc2c1=O | 44.3 µM | 50.8 µM
32 | O=C(NC(C(=O)N/N=C/c1cccc2ccccc12)c1n[nH]c(=O)c2ccccc12)c1ccccc1 (stereo unspecified) | 58.8 µM | > 100 µM
33 | CCc1ccc(N=C2NC(=O)/C(=C/c3cc(OC)c(O)c(OC)c3)S2)cc1 | 41.1 µM | > 100 µM
34 | N#Cc1cccc(NC(=O)N2CCC(c3nc4c(nnn4Cc4cccc(Cl)c4)c(=O)[nH]3)CC2)c1 | 21.2 µM | 23.3 µM
35 | Cc1oc(C(=O)Nc2ccc(O)cc2)cc1COc1ccccc1 | 15.2 µM | 35.1 µM
36 | CC12CCC(=O)N1C(C(=O)Nc1ccc(SC(F)F)cc1)CS2 (stereo unspecified) | 47.8 µM | > 100 µM
37 | CCN(CC(=O)NCc1cccs1)C(=O)c1ccc([N+](=O)[O-])o1 | 91.9 µM | > 100 µM
38 | CCOc1ccc(NCc2cccn2-c2nnc(N3CCC(C(=O)NCCCN4C(C)CCCC4C)CC3)s2)cc1 (stereo unspecified) | 93.6 µM | > 100 µM
39 | CCOc1ccc(-n2cc(-c3ccccc3)c3c(=O)[nH]cnc32)cc1 | 84 µM | > 100 µM
40 | CC(OC(=O)COc1ccc(Nc2ccccc2)cc1)C(=O)N(C)c1ccccc1 (stereo unspecified) | 2.16 µM | 10.9 µM
41 | CCCCn1c(SCc2ncc(-c3ccccc3)o2)nc2cc(S(N)(=O)=O)ccc21 | 5.25 µM | 8.34 µM
42 | CCc1ccc2oc(-c3ccc(OC)cc3)cc(=Nc3c(C)n(C)n(-c4ccccc4)c3=O)c2c1 | 18.8 µM | 23.4 µM

Row | Structure (SMILES) | IC50 | IC90
43 | C=C(C)C1Cc2c(C)nn(-c3nc(C)cc(C)n3)c2C1 (stereo unspecified) | 8.78 µM | 22.1 µM
44 | Cc1ccc(-n2cc(CN(C)Cc3nccn3C)c(-c3cccc(C)c3)n2)cc1 | 13.1 µM | 17.4 µM
45 | O=C(Nc1cc(C(F)(F)F)ccc1Cl)C(Sc1cccc[n+]1[O-])c1ccccc1 (stereo unspecified) | 43.7 µM | 48.2 µM
46 | O=C1/C(=C\c2ccncc2)CCc2ccccc21 | 45.9 µM | 49.7 µM
47 | O=C(/C=C/c1ccc(O)cc1)c1ccc(NC2=C(N3CCCCC3)C(=O)c3ccccc3C2=O)cc1 | 17.5 µM | 22.4 µM
48 | CC1=NN(C(N)=S)C(=O)C1N=Nc1ccc(C)c(Br)c1 (stereo unspecified) | 37.2 µM | > 100 µM
49 | Cc1ccc(S(=O)(=O)NCc2ccc(C(=O)NCCCN3CCC(Cc4ccccc4)CC3)cc2)cc1 | – | > 100 µM
50 | O=C(N/N=C\C=C\c1ccc([N+](=O)[O-])o1)c1cccs1 | 10.8 µM | 15.1 µM
51 | Nc1nc(CN2CCN(c3ccccc3F)CC2)nc(N2CCCc3ccccc32)n1 | 12 µM | 24.2 µM
52 | CCc1cc(C(=O)Nc2nc(-c3ccccn3)cs2)sc1C | 4.53 µM | 8.86 µM
53 | Cc1onc(-c2c(F)cccc2Cl)c1C(=O)O/N=C(\N)c1ccc([N+](=O)[O-])o1 | 14.4 µM | 27.6 µM
54 | CCCN(CCC)CCNC(=O)c1cc2c(-c3ccc(Cl)cc3)nn(C)c2s1 | 23.9 µM | 27.1 µM
55 | Cc1cc(N/N=C2/CCCc3ccccc32)nc2ccccc12 | 41.9 µM | 45.6 µM
56 | CSC(=S)N/N=C/c1ccccc1 | 39.8 µM | 54.1 µM
57 | Cc1cccc(-c2ncc(CN3CCC(CO)(CCCc4ccccc4)CC3)cn2)c1 | 48.5 µM | 55.1 µM
58 | Cc1cc(C)n(-c2ccc(C(=O)Oc3ccc4c(c3)OCO4)cc2)n1 | 11.7 µM | > 100 µM
59 | CCC1C(c2ccccc2)N(C)C(c2ccccc2)CC1(O)c1ccccc1 (stereo unspecified) | 23.9 µM | 27.6 µM
60 | CC1(C)CC(=O)C2=C(C1)NC(Nc1nc3ccccc3o1)=NC2c1ccccn1 (stereo unspecified) | 2.99 µM | 6.27 µM
61 | COCCOC(=O)c1ccc(NC(=O)COc2ccc([N+](=O)[O-])cc2)cc1 | – | > 100 µM
62 | CC1(C)C2CCC1(C)C(OCC[N+](C)(C)CC(=O)OC1CCCCC1)C2 (stereo unspecified) | 12 µM | 13.1 µM
63 | CC(Oc1ccc(F)cc1)C(=O)Nc1sc2c(c1C(=O)NCc1cccnc1)CCCC2 (stereo unspecified) | 43.6 µM | 86 µM
